# Results published in ChEMBL document CHEMBL4613259, “Biosynthesis of Amino Acid Derived α-Pyrones by an NRPS-NRPKS Hybrid Megasynthetase in Fungi” (J Nat Prod, 2020).
# Active and inactive are the calls of the source. The rule behind the calls is not given here.
# Assays:
# Aspergillus nidulans = assay: Growth inhibition of Aspergillus nidulans at 0 to 300 ug/ml incubated for 4 days; type: functional, organism-based
# Candida albicans = assay: Antifungal activity against Candida albicans SC5314 up to 100 ug/ml after 48 hrs by microdilution assay; type: functional, organism-based
# T47D = assay: Growth inhibition of human T47D cells; type: functional, cell-based
Compound,growth inhibition (GI) (Aspergillus nidulans),Activity (Candida albicans),IC50 (T47D) [µg/mL]
N[C@@H](Cc1ccccc1)c1cc(O)cc(=O)o1,Active,–,–
COc1cc([C@H](Cc2ccc(Cl)cc2)NC(C)=O)oc(=O)c1,–,inactive,–
COc1cc([C@H](Cc2ccccc2Cl)NC(C)=O)oc(=O)c1,–,inactive,–
COc1cc([C@H](Cc2ccc(F)cc2)NC(C)=O)oc(=O)c1,–,inactive,–
COc1cc([C@H](Cc2ccccc2)NC(C)=O)oc(=O)c1,–,inactive,9.2
COc1cc([C@H](Cc2ccc(C)cc2)NC(C)=O)oc(=O)c1,–,inactive,–
COc1cc([C@H](Cc2cccc(Cl)c2)NC(C)=O)oc(=O)c1,–,inactive,–
COc1cc([C@H](Cc2ccc(Br)cc2)NC(C)=O)oc(=O)c1,–,inactive,–
